Experimental data as given in patent publication US20240317777A1, “NOVEL MACROCYCLIC AMINOPYRAZOLE COMPOUNDS AS CDK2 INHIBITORS” (Accutar Biotechnology Inc., priority 2023, published 2024).
Like-named read-outs stand apart in the source and are kept apart here.

Legend:
CDK6-CYCLIN D3 = CDK6-CYCLIN D3 (Homo sapiens, UniProt Q00534); experiment: CDK protein kinase inhibition by ADP-Glo assay, CDK6-CYCLIN D3; assay type: biochemical; conditions: for IC50: ADP-Glo, 1000 μM ATP, read-out: CDK6-CYCLIND3, IC50
Sequence of CDK6-CYCLIN D3 (Q00534 whole entry): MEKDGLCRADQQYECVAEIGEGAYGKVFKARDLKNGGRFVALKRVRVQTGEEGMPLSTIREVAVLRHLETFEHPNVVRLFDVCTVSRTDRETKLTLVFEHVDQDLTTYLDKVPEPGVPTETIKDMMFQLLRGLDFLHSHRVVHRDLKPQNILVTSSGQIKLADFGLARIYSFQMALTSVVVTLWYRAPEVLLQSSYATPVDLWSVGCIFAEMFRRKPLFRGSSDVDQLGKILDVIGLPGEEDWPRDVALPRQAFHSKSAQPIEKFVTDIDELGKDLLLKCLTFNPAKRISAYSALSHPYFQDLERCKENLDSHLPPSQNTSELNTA
Sequence of CDK6-CYCLIN D3 (P30281 whole entry partner): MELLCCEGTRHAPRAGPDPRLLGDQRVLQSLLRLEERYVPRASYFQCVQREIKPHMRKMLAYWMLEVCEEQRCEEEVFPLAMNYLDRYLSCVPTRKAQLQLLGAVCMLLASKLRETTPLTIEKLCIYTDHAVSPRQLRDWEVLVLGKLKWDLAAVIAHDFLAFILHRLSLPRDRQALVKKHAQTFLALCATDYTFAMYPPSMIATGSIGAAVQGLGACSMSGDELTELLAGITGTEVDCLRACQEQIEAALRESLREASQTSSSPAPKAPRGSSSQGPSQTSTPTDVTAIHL
Outline: (§1)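 Human CDK/cyclin complexes phosphorylated peptide substrates at 22° C in 100 mM HEPES pH 7.5 with 5 mM MgCl2, 1 mM DTT, 0.1% BSA, 0.01% Triton X-100 and 1000 μM ATP (1% DMSO). ADP formed was detected by ADP-Glo luminescence.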

CDK9-CYCLIN T1 = CDK9-CYCLIN T1 (Homo sapiens, UniProt P50750); experiment: CDK protein kinase inhibition by ADP-Glo assay, CDK9-CYCLIN T1; assay type: biochemical; conditions: for IC50: ADP-Glo, 1000 μM ATP, read-out: CDK9-CYCLINT1, IC50
Sequence of CDK9-CYCLIN T1 (P50750 whole entry): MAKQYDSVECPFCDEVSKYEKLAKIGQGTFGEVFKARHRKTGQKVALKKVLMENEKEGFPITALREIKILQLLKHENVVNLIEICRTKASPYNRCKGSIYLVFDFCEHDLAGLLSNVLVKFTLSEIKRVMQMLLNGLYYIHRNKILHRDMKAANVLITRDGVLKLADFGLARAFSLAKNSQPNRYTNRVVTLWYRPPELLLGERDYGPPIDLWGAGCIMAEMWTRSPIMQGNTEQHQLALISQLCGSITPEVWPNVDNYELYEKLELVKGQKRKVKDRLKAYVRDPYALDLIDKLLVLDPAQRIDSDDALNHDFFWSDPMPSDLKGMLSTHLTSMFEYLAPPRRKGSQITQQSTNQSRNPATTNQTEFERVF
Sequence of CDK9-CYCLIN T1 (O60563 whole entry partner): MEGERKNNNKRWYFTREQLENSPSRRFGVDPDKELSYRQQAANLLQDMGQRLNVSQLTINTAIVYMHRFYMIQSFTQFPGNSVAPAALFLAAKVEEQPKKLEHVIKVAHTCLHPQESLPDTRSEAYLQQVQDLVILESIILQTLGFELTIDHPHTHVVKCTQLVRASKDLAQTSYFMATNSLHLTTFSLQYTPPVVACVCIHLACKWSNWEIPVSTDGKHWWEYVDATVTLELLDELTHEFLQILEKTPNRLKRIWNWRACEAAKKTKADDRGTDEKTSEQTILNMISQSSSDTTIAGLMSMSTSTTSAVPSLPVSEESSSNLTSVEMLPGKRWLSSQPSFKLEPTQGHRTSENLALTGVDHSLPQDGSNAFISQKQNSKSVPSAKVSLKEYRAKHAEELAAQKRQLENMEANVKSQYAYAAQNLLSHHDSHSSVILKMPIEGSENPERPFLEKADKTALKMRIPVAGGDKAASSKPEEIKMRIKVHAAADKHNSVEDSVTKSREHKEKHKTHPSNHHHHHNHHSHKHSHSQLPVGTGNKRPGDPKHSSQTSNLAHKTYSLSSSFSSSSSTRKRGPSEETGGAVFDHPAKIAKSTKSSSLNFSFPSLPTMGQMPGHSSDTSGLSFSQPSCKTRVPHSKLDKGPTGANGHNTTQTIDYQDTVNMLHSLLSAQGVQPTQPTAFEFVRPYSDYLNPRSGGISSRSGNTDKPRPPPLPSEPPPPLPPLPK
Outline: as §1

[1] = system: Phospho-Rb (Ser807/811) in OVCAR3 cells; experiment: Phospho-Rb expression inhibition in OVCAR3 cells quantified by In Cell Western; assay type: cell-based; conditions: Homo sapiens, OVCAR-3, 24 hours, read-out: OVCAR-3 pRb IC50
Outline: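 In-cell western: after 24 h compound exposure at 37° C, fixed OVCAR3 cells co-stained for pRb Ser807/811 (800 nm channel) and total Rb (680 nm channel), imaged by LI-COR Odyssey.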

CCNE1-normal SKOV3 cells = experiment: Cell growth inhibition of CCNE1-normal SKOV3 cells (CellTiter-Glo); assay type: cell-based; conditions: Homo sapiens, SK-OV-3, 144 h, 6 days
Outline: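 Growth was measured by CellTiter-Glo luminescence after 6 days' compound exposure at 37 °C. Cells were plated one day before dosing at 1000 per well in medium with 10% FBS, and compounds were diluted from DMSO stocks.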

CDK2-CYCLIN E1 = CDK2-CYCLIN E1 (Homo sapiens, UniProt P24941); experiment: CDK protein kinase inhibition by ADP-Glo assay, CDK2-CYCLIN E1; assay type: biochemical; conditions: ADP-Glo, 1000 μM ATP, read-out: CDK2-CYCLINE, IC50
Outline: as §1

[2] = system: CCNE1-amplified OVCAR3 cells; experiment: Cell growth inhibition of CCNE1-amplified OVCAR3 cells (CellTiter-Glo); assay type: cell-based; conditions: Homo sapiens, OVCAR-3, 144 h, 6 days
Outline: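 Growth read-out was CellTiter-Glo luminescence, taken after 10 min at room temperature at the end of a 6-day compound exposure at 37 °C. Compounds were diluted from DMSO stocks across various concentrations.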

CDK1-CYCLIN B = CDK1-CYCLIN B (Homo sapiens, UniProt P06493); experiment: CDK protein kinase inhibition by ADP-Glo assay, CDK1-CYCLIN B; assay type: biochemical; conditions: for IC50: ADP-Glo, 1000 μM ATP, read-out: CDK1-CYCLINB, IC50
Sequence of CDK1-CYCLIN B (P06493 whole entry): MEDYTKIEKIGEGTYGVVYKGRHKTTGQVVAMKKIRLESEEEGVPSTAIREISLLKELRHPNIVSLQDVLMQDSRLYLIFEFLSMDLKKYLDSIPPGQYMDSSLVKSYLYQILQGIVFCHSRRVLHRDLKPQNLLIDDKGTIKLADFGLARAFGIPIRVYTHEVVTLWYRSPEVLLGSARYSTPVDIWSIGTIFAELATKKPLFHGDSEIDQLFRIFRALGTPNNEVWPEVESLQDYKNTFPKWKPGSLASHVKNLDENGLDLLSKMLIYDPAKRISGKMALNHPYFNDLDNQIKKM
Sequence of CDK1-CYCLIN B (P14635 whole entry partner): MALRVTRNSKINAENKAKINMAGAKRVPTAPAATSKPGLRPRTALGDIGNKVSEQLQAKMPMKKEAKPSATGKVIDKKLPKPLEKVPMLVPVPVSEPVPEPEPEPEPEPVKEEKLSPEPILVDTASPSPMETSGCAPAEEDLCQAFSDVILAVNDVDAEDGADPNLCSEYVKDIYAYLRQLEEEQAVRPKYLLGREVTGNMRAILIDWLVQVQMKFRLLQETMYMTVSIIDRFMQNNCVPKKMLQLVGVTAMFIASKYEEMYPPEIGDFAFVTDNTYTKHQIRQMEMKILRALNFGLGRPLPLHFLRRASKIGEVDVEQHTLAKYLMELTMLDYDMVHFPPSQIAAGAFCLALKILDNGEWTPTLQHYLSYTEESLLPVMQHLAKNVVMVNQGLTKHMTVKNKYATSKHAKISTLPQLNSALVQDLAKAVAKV
Outline: as §1

CDK4-CYCLIN D1 = CDK4-CYCLIN D1 (Homo sapiens, UniProt P11802); experiment: CDK protein kinase inhibition by ADP-Glo assay, CDK4-CYCLIN D1; assay type: biochemical; conditions: for IC50: ADP-Glo, 1000 μM ATP, read-out: CDK4-CYCLIND1, IC50
Sequence of CDK4-CYCLIN D1 (P11802 whole entry): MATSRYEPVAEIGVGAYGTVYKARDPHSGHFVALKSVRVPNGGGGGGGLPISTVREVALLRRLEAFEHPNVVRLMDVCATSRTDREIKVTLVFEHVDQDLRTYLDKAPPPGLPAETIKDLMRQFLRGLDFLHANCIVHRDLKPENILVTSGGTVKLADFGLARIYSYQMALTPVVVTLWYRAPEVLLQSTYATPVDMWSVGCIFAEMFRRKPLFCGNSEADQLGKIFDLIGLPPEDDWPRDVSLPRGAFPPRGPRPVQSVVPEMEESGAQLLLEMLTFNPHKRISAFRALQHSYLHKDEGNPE
Sequence of CDK4-CYCLIN D1 (P24385 whole entry partner): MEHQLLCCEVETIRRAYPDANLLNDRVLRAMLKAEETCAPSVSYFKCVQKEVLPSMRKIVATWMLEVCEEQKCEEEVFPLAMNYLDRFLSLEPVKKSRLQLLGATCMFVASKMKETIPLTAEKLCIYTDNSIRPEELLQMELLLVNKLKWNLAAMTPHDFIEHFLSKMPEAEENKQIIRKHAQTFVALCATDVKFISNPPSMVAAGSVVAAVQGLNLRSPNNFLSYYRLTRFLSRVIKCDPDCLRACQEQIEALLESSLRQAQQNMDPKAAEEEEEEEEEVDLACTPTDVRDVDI
Outline: as §1

O=C1NCCCCC(F)(F)c2cc(ccn2)Nc2cc([nH]n2)[C@H]2CC[C@H](C2)O1 [Compound 64, (1^1S,1^3R,Z)-5,5-difluoro-2^1H-12-oxa-3,10-diaza-4(4,2)-pyridina-2(3,5)-pyrazola-1(1,3)-cyclopentanacyclododecaphan-11-one]
IC50 (CDK6-CYCLIN D3; Table 19): 10 to 50 nM | CDK2 Fold selectivity, CDK6 (CDK6-CYCLIN D3; CDK2 versus CDK6, Table 20): D (D, >20 and ≤50) | IC50 (CDK9-CYCLIN T1; Table 19): 10 to 50 nM | CDK2 Fold selectivity, CDK9 (CDK9-CYCLIN T1; CDK2 versus CDK9, Table 20): E (E, <20) | IC50 [1]: ≤ 2 nM | IC50 (CCNE1-normal SKOV3 cells): 50 to 250 nM | IC50 (CDK2-CYCLIN E1; Table 19): ≤ 10 nM | IC50 [2]: 2 to 10 nM | IC50 (CDK1-CYCLIN B; Table 19): ≤ 10 nM | CDK2 Fold selectivity, CDK1 (CDK1-CYCLIN B; CDK2 versus CDK1, Table 20): E (E, <20) | IC50 (CDK4-CYCLIN D1; Table 19): 10 to 50 nM | CDK2 Fold selectivity, CDK4 (CDK4-CYCLIN D1; CDK2 versus CDK4, Table 20): D (D, >20 and ≤50)

O=C1NC23CC(CCCc4cc(ccn4)Nc4cc(n[nH]4)[C@H]4CC[C@H](C4)O1)(C2)C3 [Compound 96, (1^1S,1^3R,Z)-2^1H-11-oxa-3,9-diaza-4(4,2)-pyridina-2(3,5)-pyrazola-8(1,3)-bicyclo[1.1.1]pentana-1(1,3)-cyclopentanacycloundecaphan-10-one]
IC50 (CDK6-CYCLIN D3; Table 13): 10 to 50 nM | CDK2 Fold selectivity, CDK6 (CDK6-CYCLIN D3; CDK2 versus CDK6, Table 14): E (E, <20) | IC50 (CDK9-CYCLIN T1; Table 13): ≤ 10 nM | CDK2 Fold selectivity, CDK9 (CDK9-CYCLIN T1; CDK2 versus CDK9, Table 14): E (E, <20) | IC50 [1]: ≤ 2 nM | IC50 (CCNE1-normal SKOV3 cells): 50 to 250 nM | IC50 (CDK2-CYCLIN E1; Table 13): ≤ 10 nM | IC50 [2]: 2 to 10 nM | IC50 (CDK1-CYCLIN B; Table 13): ≤ 10 nM | CDK2 Fold selectivity, CDK1 (CDK1-CYCLIN B; CDK2 versus CDK1, Table 14): E (E, <20) | IC50 (CDK4-CYCLIN D1; Table 13): 50 to 100 nM | CDK2 Fold selectivity, CDK4 (CDK4-CYCLIN D1; CDK2 versus CDK4, Table 14): D (D, >20 and ≤50)

C[C@@H]1CC23CC(C2)(C3)NC(=O)O[C@@H]2CC[C@@H](C2)c2cc([nH]n2)Nc2ccnc(c2)O1 [Compound 100, (1^1S,1^3R,6R,Z)-6-methyl-2^1H-5,11-dioxa-3,9-diaza-4(4,2)-pyridina-2(3,5)-pyrazola-8(1,3)-bicyclo[1.1.1]pentana-1(1,3)-cyclopentanacycloundecaphan-10-one]
IC50 (CDK6-CYCLIN D3; Table 17): 100 to 500 nM | CDK2 Fold selectivity, CDK6 (CDK6-CYCLIN D3; CDK2 versus CDK6, Table 18): C (C, >50 and ≤100) | IC50 (CDK9-CYCLIN T1; Table 17): 10 to 50 nM | CDK2 Fold selectivity, CDK9 (CDK9-CYCLIN T1; CDK2 versus CDK9, Table 18): D (D, >20 and ≤50) | IC50 [1]: 2 to 10 nM | IC50 (CCNE1-normal SKOV3 cells): 50 to 250 nM | IC50 (CDK2-CYCLIN E1; Table 17): ≤ 10 nM | IC50 [2]: 10 to 50 nM | IC50 (CDK1-CYCLIN B; Table 17): 10 to 50 nM | CDK2 Fold selectivity, CDK1 (CDK1-CYCLIN B; CDK2 versus CDK1, Table 18): E (E, <20) | IC50 (CDK4-CYCLIN D1; Table 17): 100 to 500 nM | CDK2 Fold selectivity, CDK4 (CDK4-CYCLIN D1; CDK2 versus CDK4, Table 18): C (C, >50 and ≤100)

C[C@H]1CC23CC(C2)(C3)NC(=O)O[C@@H]2CC[C@@H](C2)c2cc([nH]n2)Nc2ccnc(c2)O1 [Compound 102, (1^1S,1^3R,6S,Z)-6-methyl-2^1H-5,11-dioxa-3,9-diaza-4(4,2)-pyridina-2(3,5)-pyrazola-8(1,3)-bicyclo[1.1.1]pentana-1(1,3)-cyclopentanacycloundecaphan-10-one]
IC50 (CDK6-CYCLIN D3; Table 17): 100 to 500 nM | CDK2 Fold selectivity, CDK6 (CDK6-CYCLIN D3; CDK2 versus CDK6, Table 18): C (C, >50 and ≤100) | IC50 (CDK9-CYCLIN T1; Table 17): 10 to 50 nM | CDK2 Fold selectivity, CDK9 (CDK9-CYCLIN T1; CDK2 versus CDK9, Table 18): E (E, <20) | IC50 [1]: ≤ 2 nM | IC50 (CCNE1-normal SKOV3 cells): 50 to 250 nM | IC50 (CDK2-CYCLIN E1; Table 17): ≤ 10 nM | IC50 [2]: 2 to 10 nM | IC50 (CDK1-CYCLIN B; Table 17): ≤ 10 nM | CDK2 Fold selectivity, CDK1 (CDK1-CYCLIN B; CDK2 versus CDK1, Table 18): E (E, <20) | IC50 (CDK4-CYCLIN D1; Table 17): 100 to 500 nM | CDK2 Fold selectivity, CDK4 (CDK4-CYCLIN D1; CDK2 versus CDK4, Table 18): C (C, >50 and ≤100)

O=C1NCCCCOc2cccc(c2)Nc2cc([nH]n2)[C@H]2CC[C@H](C2)O1 [Compound 105, (1^1S,1^3R,Z)-2^1H-5,12-dioxa-3,10-diaza-2(5,3)-pyrazola-4(1,3)-benzena-1(1,3)-cyclopentanacyclododecaphan-11-one]
IC50 (CDK6-CYCLIN D3; Table 7): 100 to 500 nM | CDK2 Fold Sensitivity, CDK6 (CDK6-CYCLIN D3; CDK2 versus CDK6, Table 8): C (C, >50 and ≤100) | IC50 (CDK9-CYCLIN T1; Table 7): > 500 nM | CDK2 Fold Sensitivity, CDK9 (CDK9-CYCLIN T1; CDK2 versus CDK9, Table 8): B (B, >100 and ≤500) | IC50 [1]: 10 to 50 nM | IC50 (CCNE1-normal SKOV3 cells): > 1250 nM | IC50 (CDK2-CYCLIN E1; Table 7): ≤ 10 nM | IC50 [2]: 50 to 250 nM | IC50 (CDK1-CYCLIN B; Table 7): 100 to 500 nM | CDK2 fold selectivity over CDK1 (CDK1-CYCLIN B; CDK2 versus CDK1, Table 8): C (C, >50 and ≤100) | IC50 (CDK4-CYCLIN D1; Table 7): 100 to 500 nM | CDK2 Fold Sensitivity, CDK4 (CDK4-CYCLIN D1; CDK2 versus CDK4, Table 8): D (D, >20 and ≤50)

O=C1NC23CC(C/C=C/c4cncc(c4)Nc4cc(n[nH]4)[C@H]4CC[C@H](C4)O1)(C2)C3 [Compound 106, (1^1S,1^3R,2^4Z,5E)-2^1H-11-oxa-3,9-diaza-4(3,5)-pyridina-2(3,5)-pyrazola-8(1,3)-bicyclo[1.1.1]pentana-1(1,3)-cyclopentanacycloundecaphan-5-en-10-one]
IC50 (CDK6-CYCLIN D3; Table 15): 10 to 50 nM | CDK2 Fold selectivity, CDK6 (CDK6-CYCLIN D3; CDK2 versus CDK6, Table 16): E (E, <20) | IC50 (CDK9-CYCLIN T1; Table 15): ≤ 10 nM | CDK2 Fold selectivity, CDK9 (CDK9-CYCLIN T1; CDK2 versus CDK9, Table 16): E (E, <20) | IC50 [1]: ≤ 2 nM | IC50 (CCNE1-normal SKOV3 cells): 10 to 50 nM | IC50 (CDK2-CYCLIN E1; Table 15): ≤ 10 nM | IC50 [2]: ≤ 2 nM | IC50 (CDK1-CYCLIN B; Table 15): ≤ 10 nM | CDK2 Fold selectivity, CDK1 (CDK1-CYCLIN B; CDK2 versus CDK1, Table 16): E (E, <20) | IC50 (CDK4-CYCLIN D1; Table 15): 10 to 50 nM | CDK2 Fold selectivity, CDK4 (CDK4-CYCLIN D1; CDK2 versus CDK4, Table 16): E (E, <20)

O=C1NC23CC(C/C=C/c4cc(ccn4)Nc4cc(n[nH]4)[C@H]4CC[C@H](C4)O1)(C2)C3 [Compound 107, (11S,13R,24Z,5E)-21H-11-oxa-3,9-diaza-4(4,2)-pyridina-2(3,5)-pyrazola-8(1,3)-bicyclo[1.1.1]pentana-1(1,3)-cyclopentanacycloundecaphan-5-en-10-one]
IC50 (CDK6-CYCLIN D3; Table 17): 10 to 50 nM | CDK2 Fold selectivity, CDK6 (CDK6-CYCLIN D3; CDK2 versus CDK6, Table 18): E (E, <20) | IC50 (CDK9-CYCLIN T1; Table 17): ≤ 10 nM | CDK2 Fold selectivity, CDK9 (CDK9-CYCLIN T1; CDK2 versus CDK9, Table 18): E (E, <20) | IC50 [1]: ≤ 2 nM | IC50 (CCNE1-normal SKOV3 cells): 10 to 50 nM | IC50 (CDK2-CYCLIN E1; Table 17): ≤ 10 nM | IC50 [2]: ≤ 2 nM | IC50 (CDK1-CYCLIN B; Table 17): ≤ 10 nM | CDK2 Fold selectivity, CDK1 (CDK1-CYCLIN B; CDK2 versus CDK1, Table 18): E (E, <20) | IC50 (CDK4-CYCLIN D1; Table 17): 10 to 50 nM | CDK2 Fold selectivity, CDK4 (CDK4-CYCLIN D1; CDK2 versus CDK4, Table 18): E (E, <20)
